Data from patent EP0073143B1, “Novel complex amido and imido derivatives of carboxyalkyl peptides and thioethers and ethers of peptides” (priority 1981, dated 1983).

Assays:
[1] = molecular target: T1, human plasma angiotensin converting enzyme (Homo sapiens, UniProt P12821); assay: In vitro assay of inhibition of angiotensin converting enzyme; assay type: biochemical; settings: [3H]benzoyl-Gly-His-Leu 80 nM, 37°C, 15 minutes; order of magnitude only; read-out: I50
T1 construct: partially-purified human plasma angiotensin converting enzyme; from tissue; host or cells: human plasma
Experimental: To this was added 100 microliters of buffered substrate [S], [^3H]benzoyl-[…], 80 nM (25 Ci/mmole). The reaction was started by adding 100 microliters of partially-purified human plasma angiotensin converting enzyme, or 100 microliters of buffer alone. The concentration of enzyme [E] used was that required to hydrolyze 8-12% of substrate when incubated at 37°C for 15 minutes. The scintillation vials and their contents were incubated at 37°C for 15 minutes, and the reactions were stopped by adding 200 microliters of 0.5M HCI to each vial. The radioactive reaction product, [^3H]benzoyl-Gly(hippuric acid), was separated from unhydrolyzed substrate by adding and mixing (by inversion) 3 ml of Ventrex Cocktail No. 1 (Ventrex Laboratories, Inc., Portland, Maine), a fluid disclosed in copending U.S. patent application No. 184,653, filed September 6, 1980. Extractable ^3H was quantified by liquid scintillation counting. Substrate, in c.p.m., was quantified by scintillation counting of a vial containing 100 μl of buffered substrate in 5 ml of RIAfluor (New England Nuclear). The reaction mixture containing all constituents except for inhibitor was termed the control (C). The reaction mixture lacking enzyme and inhibitor was called the blank (B). Reaction mixtures containing inhibitor (varied over the range of 10^-4-10^-12M) were called the test (T) reactions. Under the conditions of this assay, the reaction obeys first order enzyme kinetics, thus the concentration of inhibitor required to inhibit the rate of hydrolysis by half (150) approximate the Ki value. The results were estimated by use of the formula: [formula] where C = control c.p.m.; B = blank c.p.m.; [S] = substrate c.p.m. The factor 100 converts fractional substrate utilization into percentage utilization, and 1/15 minute connects to percentage substrate utilization/minute. Thus, [E] is enzyme activity in percentage substrate utilization/minute. By substituting T for C, hydrolysis rates are computed for the test reaction mixtures. By comparing a given test rate against the control rate, the degree of inhibition can be computed.

[2] = test system: effects of 400 ng/kg of angiotensin I on mean arterial blood pressure; assay: Intravenous effectiveness: effect on the pressor response to angiotensin I in anesthetized rats; assay type: in vivo; settings: de-iodo analog compared with the iodo compound
Experimental: Rats (190-290 g body weight) were fasted overnight and then anesthetized with intraperitoneal pentobarbital, 50-60 mg/kg. Tracheostomy was performed and the animals were ventilated mechanically. A cannula was inserted into a femoral vein for injection of angiotensin I, and a second cannula was inserted into a common carotid artery for direct measurement of arterial blood pressure. Heparin, 1,000 units, was injected via the femoral vein to prevent coagulation. Blood pressure was measured with a pressure transducer connected to a polygraph. The rats were injected with […] of angiotensin I in 20 µl of 0.9 g% NaCI, an amount of angiotensin I sufficient to raise mean arterial blood pressure by approximately 48 mm Hg.
After the responsiveness of a given rat to angiotensin I was established, the named compound at 0.5 micromole/kg (drug dissolved in 15 microliters of 0.9% NaCl) was given intravenously. At timed intervals, the effects of 400 ng/kg of angiotensin I on mean arterial blood pressure were tested. Results are shown below:
Experiments were carried out using rats according to Example 32.

[3] = Loss of activity of an aqueous solution on standing; assay type: physicochemical; settings: fresh aqueous solution 1 mg per ml, pH of about 8, standing for as little as 30 minutes
man = settings: 13 patients treated, all biopsies; Hoorntje et al.; cited from earlier work

T1 sequence (P12821 30-1232 limits assumed): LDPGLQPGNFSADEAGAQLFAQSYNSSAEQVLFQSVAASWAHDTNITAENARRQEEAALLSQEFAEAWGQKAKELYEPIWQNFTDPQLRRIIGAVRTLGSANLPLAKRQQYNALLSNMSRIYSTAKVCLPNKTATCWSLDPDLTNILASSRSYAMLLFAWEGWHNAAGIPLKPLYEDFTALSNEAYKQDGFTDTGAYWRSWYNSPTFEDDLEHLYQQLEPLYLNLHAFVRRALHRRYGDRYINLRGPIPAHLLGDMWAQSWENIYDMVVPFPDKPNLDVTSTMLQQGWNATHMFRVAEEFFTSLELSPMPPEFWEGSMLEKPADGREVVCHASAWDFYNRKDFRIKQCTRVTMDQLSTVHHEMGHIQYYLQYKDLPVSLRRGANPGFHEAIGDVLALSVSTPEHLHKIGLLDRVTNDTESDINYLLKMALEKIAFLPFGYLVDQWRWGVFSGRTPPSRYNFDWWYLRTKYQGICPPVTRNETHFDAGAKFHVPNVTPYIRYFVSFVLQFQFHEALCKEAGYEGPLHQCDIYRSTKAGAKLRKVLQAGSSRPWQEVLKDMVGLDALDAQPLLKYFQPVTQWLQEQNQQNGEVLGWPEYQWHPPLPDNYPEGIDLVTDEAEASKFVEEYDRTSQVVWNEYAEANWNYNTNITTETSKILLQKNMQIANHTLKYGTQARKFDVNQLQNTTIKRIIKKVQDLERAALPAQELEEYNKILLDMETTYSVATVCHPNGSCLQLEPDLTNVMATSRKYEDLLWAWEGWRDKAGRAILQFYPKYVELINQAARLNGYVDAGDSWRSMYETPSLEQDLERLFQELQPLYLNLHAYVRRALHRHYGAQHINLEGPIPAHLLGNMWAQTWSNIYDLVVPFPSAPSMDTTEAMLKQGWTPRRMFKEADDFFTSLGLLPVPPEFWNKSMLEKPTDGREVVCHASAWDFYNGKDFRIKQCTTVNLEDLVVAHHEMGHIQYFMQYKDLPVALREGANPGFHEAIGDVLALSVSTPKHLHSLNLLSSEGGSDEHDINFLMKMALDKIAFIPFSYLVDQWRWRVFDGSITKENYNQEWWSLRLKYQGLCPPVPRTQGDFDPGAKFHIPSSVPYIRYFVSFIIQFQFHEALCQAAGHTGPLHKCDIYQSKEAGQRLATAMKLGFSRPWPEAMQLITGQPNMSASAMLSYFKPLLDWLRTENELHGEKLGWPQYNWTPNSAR

Row | IC50 [1] | SMILES | increase of intravenous effectiveness on removal of iodine [2] | activity of aqueous solution upon standing [3] | renal biopsies (man)
1 | ~100 nM | CC(N[C@@H](CC(=O)N1CCCC1)C(=O)O)C(=O)N1CCC[C@H]1C(=O)O (stereo partly drawn) [N-[L-1-carboxy-2-(carbopyrrolide)ethyl]-Alanyl-L-Proline] |  |  | 
2 | ~1 nM | CC(N[C@@H](CCC(=O)Nc1ccc(I)cc1)C(=O)O)C(=O)N1CCC[C@H]1C(=O)O (stereo partly drawn) [N-[L-1-carboxy-3-(carbo-4-iodo-anilide)propyl] Alanyl-L-Proline] | three-fold |  | 
3 | ~1 nM | CC(N[C@@H](CCC(=O)Nc1ccccc1)C(=O)O)C(=O)N1CCC[C@H]1C(=O)O (stereo partly drawn) [N-[L-1-carboxy-3-(carbo-anilide)propyl]-Alanyl-L-Proline] |  |  | 
4 |  | C[C@H](CS)C(=O)N1CCC[C@H]1C(=O)O [SQ14225, D-3-mercapto-2-methylpropanoyl-L-proline] |  | substantially less active | evidence of immune complex deposition along the glomerular basement membranes
